Values of other authors, collected in US9801874B2, “Method for the preparation of liposome encapsulated vincristine for therapeutic use” (Spectrum Pharmaceuticals, Inc., priority 2012, dated 2017).
Counter-ions that a name gives are not always drawn.

Settings: 1:1 sulfate salt, crystalline powder

solubility in water: soluble in water
SMILES: CCC12C=CCN3CC[C@@]4(c5cc([C@@]6(C(=O)OC)CC7CN(CCc8c6[nH]c6ccccc86)C[C@](O)(CC)C7)c(OC)cc5N(C=O)[C@H]4[C@@](O)(C(=O)OC)C1OC(C)=O)C32 (stereo partly shown) [Vincristine sulfate, 22-oxovincaleukoblastine]
